# Assay results from ChEMBL document CHEMBL4368915, “Synthesis and Biological Investigation of Phenothiazine-Based Benzhydroxamic Acids as Selective Histone Deacetylase 6 Inhibitors” (J Med Chem, 2019).
# Active and inactive are the calls of the source. No cut-off for these calls is given here.
# How the values were obtained:
# [1] = molecular target: Histone deacetylase 1 (Homo sapiens, UniProt Q13547)
# [2] = molecular target: T1, Protein deacetylase HDAC6 (Homo sapiens, UniProt Q9UBN7)
# T1 sequence (Q9UBN7 whole entry): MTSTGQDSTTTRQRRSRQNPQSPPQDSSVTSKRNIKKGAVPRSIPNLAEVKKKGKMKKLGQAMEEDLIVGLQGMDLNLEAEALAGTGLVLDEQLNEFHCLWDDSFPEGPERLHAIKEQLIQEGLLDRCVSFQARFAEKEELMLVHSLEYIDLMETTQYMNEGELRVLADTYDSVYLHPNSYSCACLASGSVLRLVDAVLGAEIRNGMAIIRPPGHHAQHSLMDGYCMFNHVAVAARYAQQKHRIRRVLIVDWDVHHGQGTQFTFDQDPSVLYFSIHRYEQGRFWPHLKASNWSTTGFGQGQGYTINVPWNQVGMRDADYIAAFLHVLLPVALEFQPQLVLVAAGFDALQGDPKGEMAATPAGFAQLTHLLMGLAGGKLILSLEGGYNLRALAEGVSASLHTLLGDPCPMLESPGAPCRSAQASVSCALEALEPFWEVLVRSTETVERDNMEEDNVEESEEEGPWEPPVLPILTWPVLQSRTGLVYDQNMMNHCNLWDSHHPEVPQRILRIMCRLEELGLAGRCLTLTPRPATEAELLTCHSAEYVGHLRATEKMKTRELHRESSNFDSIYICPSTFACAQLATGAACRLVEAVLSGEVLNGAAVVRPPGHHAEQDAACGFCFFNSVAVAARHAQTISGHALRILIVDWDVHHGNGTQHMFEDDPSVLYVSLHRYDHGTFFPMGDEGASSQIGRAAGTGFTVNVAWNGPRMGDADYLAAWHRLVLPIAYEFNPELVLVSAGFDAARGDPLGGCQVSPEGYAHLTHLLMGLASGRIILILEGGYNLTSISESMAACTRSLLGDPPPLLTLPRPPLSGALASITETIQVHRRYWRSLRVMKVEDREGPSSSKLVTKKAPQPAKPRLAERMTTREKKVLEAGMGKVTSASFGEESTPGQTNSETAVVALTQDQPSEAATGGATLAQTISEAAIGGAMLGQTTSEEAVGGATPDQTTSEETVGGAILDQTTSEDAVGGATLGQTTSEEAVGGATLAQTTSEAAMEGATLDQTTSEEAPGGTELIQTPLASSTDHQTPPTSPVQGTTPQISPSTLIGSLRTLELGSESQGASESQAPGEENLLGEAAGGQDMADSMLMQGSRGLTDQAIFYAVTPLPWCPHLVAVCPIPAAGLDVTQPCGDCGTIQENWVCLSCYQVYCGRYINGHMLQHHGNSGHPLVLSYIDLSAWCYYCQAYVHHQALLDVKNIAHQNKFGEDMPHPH
# [3] = Drug level in human liver microsomes treated with 2 uM 4-[(10H-Phenothiazin-10-yl)methyl]-N-hydroxybenzamide assessed as compound formation after 40 mins by LC-MS/MS analysis; assay type: ADME, Microsome
# [4] = tested on: HepaRG; test: (§1) Cytotoxicity against human HepaRG cells assessed as cell viability at 100 uM after 24 hrs by CellTiter blue-reagent based assay relative to control; settings: heparg, 24 h, 100 µM
# [5] = molecular target: CYP2C9 (Homo sapiens, UniProt P11712); test: Inhibition of human CYP2C9 in human liver microsomes at 10 uM relative to control; assay type: ADME
# Sequence of CYP2C9 (P11712 whole entry, the tested form may be a part): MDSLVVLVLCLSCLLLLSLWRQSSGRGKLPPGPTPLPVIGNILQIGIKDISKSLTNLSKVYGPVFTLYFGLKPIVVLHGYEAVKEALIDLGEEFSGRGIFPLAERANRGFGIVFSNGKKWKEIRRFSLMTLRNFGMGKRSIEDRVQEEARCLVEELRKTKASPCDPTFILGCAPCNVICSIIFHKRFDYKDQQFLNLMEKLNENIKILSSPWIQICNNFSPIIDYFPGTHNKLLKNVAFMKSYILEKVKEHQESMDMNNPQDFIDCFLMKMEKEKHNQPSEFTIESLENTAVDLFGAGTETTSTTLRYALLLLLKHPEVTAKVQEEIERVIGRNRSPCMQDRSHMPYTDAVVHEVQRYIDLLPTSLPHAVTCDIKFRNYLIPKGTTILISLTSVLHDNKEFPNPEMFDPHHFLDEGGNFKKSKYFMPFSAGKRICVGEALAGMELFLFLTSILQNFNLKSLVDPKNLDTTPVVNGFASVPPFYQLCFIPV
# [6] = molecular target: Histone deacetylase 4 (Homo sapiens) (UniProt P56524); test: Inhibition of recombinant N-terminal GST/His-tagged human HDAC4 (627 to 1084 residues) expressed in baculovirus expression system at 10 uM using fluorogenic ZMTFAL as substrate incubated for 90 mins by fluorescence assay relative to control
# Sequence of Histone deacetylase 4 (Homo sapiens) (P56524 whole entry, the tested form may be a part): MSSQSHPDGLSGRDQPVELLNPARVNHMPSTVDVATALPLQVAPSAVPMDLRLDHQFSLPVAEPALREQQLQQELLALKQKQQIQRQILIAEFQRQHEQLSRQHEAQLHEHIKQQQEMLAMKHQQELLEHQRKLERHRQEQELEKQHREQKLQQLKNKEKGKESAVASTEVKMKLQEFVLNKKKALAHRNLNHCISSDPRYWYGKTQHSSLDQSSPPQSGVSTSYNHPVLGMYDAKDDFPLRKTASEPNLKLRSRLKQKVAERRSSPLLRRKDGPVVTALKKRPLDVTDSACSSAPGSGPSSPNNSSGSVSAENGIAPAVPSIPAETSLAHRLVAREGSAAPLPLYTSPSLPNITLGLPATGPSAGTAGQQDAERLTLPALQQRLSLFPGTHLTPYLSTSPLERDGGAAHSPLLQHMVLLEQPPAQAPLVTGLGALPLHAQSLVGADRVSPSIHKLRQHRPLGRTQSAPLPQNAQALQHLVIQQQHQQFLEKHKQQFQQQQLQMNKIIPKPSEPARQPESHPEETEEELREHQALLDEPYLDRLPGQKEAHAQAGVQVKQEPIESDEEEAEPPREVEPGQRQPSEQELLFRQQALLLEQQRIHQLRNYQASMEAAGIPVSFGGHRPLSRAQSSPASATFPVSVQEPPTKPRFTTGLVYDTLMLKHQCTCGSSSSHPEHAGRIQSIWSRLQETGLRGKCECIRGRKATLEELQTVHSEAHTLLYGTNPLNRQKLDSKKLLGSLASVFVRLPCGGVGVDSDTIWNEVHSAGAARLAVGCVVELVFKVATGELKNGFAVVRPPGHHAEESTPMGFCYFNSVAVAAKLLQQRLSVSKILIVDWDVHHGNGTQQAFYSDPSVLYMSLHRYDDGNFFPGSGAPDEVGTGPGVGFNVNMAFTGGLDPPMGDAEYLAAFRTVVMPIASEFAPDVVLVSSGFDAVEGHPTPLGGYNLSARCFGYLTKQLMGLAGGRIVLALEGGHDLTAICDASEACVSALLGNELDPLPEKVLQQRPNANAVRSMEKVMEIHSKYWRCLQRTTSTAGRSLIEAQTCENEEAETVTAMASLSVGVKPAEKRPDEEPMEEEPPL
# [7] = molecular target: T2, Histone deacetylase 8 (Homo sapiens, UniProt Q9BY41)
# T2 sequence (Q9BY41 whole entry): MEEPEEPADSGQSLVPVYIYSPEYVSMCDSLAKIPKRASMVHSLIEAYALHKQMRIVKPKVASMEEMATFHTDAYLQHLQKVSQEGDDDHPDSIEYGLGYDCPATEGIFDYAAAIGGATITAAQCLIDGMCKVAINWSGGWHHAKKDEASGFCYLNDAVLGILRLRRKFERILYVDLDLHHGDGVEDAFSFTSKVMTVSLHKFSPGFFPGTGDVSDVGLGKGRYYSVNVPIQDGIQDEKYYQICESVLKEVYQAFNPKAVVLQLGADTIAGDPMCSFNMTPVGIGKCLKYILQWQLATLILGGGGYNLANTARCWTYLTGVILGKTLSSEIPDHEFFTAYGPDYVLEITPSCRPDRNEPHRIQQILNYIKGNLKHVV
# [8] = Drug metabolism in human liver microsomes assessed as 4-[(5,5-Dioxido-10H-phenothiazin-10-yl)methyl]-N-hydroxybenzamide formation at 2 uM after 40 mins by LC-MS/MS analysis; assay type: ADME, Microsome
# [9] = Half life in human liver microsomes at 2 uM by LC-MS/MS analysis; assay type: ADME, Microsome
# [10] = Stability in human liver microsomes assessed as compound remaining at 2 uM after 40 mins by LC-MS/MS analysis; assay type: ADME, Microsome; settings: read-out: Stability
# [11] = molecular target: CYP2C19 (Homo sapiens, UniProt P33261); test: Inhibition of human CYP2C19 in human liver microsomes at 10 uM relative to control; assay type: ADME
# Sequence of CYP2C19 (P33261 whole entry): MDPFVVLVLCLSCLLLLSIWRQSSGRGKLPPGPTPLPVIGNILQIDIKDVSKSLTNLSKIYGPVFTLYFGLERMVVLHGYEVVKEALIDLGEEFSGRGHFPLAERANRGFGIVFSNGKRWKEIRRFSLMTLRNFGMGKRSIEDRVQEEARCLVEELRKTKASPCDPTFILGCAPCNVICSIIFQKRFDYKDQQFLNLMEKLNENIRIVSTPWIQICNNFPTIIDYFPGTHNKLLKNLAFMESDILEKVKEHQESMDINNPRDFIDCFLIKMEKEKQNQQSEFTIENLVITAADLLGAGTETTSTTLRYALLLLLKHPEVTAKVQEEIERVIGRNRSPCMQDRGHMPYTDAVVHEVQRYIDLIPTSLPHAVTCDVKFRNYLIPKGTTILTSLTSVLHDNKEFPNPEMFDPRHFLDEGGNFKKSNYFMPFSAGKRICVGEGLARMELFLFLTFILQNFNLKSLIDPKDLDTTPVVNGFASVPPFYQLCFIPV
# [12] = molecular target: CYP2D6 (Homo sapiens, UniProt P10635); test: Inhibition of human CYP2D6 in human liver microsomes at 10 uM relative to control; assay type: ADME
# Sequence of CYP2D6 (P10635 whole entry): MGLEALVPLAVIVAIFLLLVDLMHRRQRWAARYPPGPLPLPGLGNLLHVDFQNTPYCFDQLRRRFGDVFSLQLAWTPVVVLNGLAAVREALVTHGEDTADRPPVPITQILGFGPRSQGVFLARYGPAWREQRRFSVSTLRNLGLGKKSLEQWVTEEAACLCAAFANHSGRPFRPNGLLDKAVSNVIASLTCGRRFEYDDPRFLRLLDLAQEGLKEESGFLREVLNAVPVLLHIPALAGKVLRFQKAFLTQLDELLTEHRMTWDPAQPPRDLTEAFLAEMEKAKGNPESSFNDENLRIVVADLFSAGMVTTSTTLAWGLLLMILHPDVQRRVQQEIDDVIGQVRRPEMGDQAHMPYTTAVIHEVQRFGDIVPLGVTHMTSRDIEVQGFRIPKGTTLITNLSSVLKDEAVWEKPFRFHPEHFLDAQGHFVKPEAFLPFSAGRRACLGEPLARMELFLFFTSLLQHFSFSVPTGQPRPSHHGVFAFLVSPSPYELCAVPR
# [13] = Intrinsic clearance in human liver microsomes at 2 uM by LC-MS/MS analysis; assay type: ADME, Microsome
# [14] = molecular target: T3, CYP1A2 (Homo sapiens, UniProt P05177); test: Inhibition of human CYP1A2 in human liver microsomes at 10 uM relative to control; assay type: ADME
# T3 sequence (P05177 whole entry): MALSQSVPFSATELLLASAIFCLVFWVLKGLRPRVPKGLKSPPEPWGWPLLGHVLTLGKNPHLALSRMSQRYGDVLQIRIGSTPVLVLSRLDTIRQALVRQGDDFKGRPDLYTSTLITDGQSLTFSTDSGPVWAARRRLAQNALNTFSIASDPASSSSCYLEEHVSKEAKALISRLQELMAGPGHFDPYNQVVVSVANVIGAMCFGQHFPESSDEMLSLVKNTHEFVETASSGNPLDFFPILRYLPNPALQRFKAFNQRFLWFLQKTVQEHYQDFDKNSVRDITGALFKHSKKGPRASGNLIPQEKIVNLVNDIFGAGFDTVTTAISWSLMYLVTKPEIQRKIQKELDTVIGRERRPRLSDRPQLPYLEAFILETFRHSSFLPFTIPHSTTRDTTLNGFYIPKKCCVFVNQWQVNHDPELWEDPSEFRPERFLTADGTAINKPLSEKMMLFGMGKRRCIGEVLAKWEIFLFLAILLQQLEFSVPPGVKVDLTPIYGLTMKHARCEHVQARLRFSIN
# [15] = molecular target: CYP3A4 (Homo sapiens, UniProt P08684); test: Inhibition of human CYP3A4 in human liver microsomes at 10 uM relative to control; assay type: ADME
# Sequence of CYP3A4 (P08684 whole entry): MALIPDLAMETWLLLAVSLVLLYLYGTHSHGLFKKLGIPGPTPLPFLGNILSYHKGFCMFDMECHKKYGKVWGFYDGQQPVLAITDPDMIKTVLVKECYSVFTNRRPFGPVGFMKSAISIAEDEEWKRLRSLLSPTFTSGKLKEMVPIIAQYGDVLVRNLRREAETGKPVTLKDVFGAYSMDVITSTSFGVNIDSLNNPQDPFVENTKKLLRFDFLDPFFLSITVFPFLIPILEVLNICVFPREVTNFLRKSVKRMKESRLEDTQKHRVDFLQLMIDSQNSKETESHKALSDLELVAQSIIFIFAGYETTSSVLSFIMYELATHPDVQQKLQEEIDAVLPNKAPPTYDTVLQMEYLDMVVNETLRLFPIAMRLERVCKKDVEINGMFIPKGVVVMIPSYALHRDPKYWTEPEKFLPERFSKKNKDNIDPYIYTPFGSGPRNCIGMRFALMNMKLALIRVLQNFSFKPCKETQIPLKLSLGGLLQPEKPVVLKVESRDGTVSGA
# [16] = tested on: T-24; test: Synergistic potentiation of Bortezomib-induced antiproliferative activity against human T24 cells assessed as effect on cell index, at 1 uM incubated for 24 hrs by cell impedance based assay; assay type: functional
# [17] = Drug metabolism in human liver microsomes assessed as N-Hydroxy-4-[(5-oxido-10H-Phenothiazin-10-yl)methyl]-benzamide formation at 2 uM after 40 mins by LC-MS/MS analysis; assay type: ADME, Microsome
# [18] = molecular target: T4, Histone deacetylase 8 (Homo sapiens) (UniProt Q9BY41); test: Inhibition of recombinant human HDAC8 expressed in baculovirus expression system at 1 uM using fluorogenic Arg-His-Lys(Ac)-Lys(Ac) as substrate incubated for 90 mins by fluorescence assay
# T4 sequence (whole entry): T2 sequence (Q9BY41 whole entry)
# [19] = as §1; settings: HepaRG cells, read-out: Activity
# [20] = tested on: T-24; test: Antiproliferative activity against human T24 cells assessed as inhibition of cell proliferation at 10 to 100 uM after 72 hrs by CellTiter blue-reagent based assay; assay type: functional
# [21] = tested on: MDA-MB-231; test: Antiproliferative activity against human MDA-MB-231 cells assessed as inhibition of cell proliferation at 10 to 100 uM after 72 hrs by CellTiter blue-reagent based assay; assay type: functional
# [22] = tested on: Huh-7; test: Antiproliferative activity against human HuH7 cells assessed as inhibition of cell proliferation at 10 to 100 uM after 72 hrs by CellTiter blue-reagent based assay; assay type: functional
# [23] = tested on: MCF7; test: Antiproliferative activity against human MCF7 cells after 72 hrs by CellTiter blue-reagent based assay; assay type: functional, cell-based
# [24] = tested on: THP-1; test: Antiproliferative activity against human THP1 cells after 72 hrs by CellTiter blue-reagent based assay; assay type: functional, cell-based
# [25] = tested on: HL-60; test: Antiproliferative activity against human HL60 cells after 72 hrs by CellTiter blue-reagent based assay; assay type: functional, cell-based
# [26] = tested on: T-24; test: Induction of apoptosis in human T24 cells at 1 to 10 uM after 48 hrs by propidium iodide-staining based FACS analysis; assay type: functional, cell-based
# [27] = tested on: MDA-MB-231; test: Induction of apoptosis in human MDA-MB-231 cells at 1 to 10 uM after 48 hrs by propidium iodide-staining based FACS analysis; assay type: functional, cell-based
# Sequence of Histone deacetylase 1 (Q13547 whole entry): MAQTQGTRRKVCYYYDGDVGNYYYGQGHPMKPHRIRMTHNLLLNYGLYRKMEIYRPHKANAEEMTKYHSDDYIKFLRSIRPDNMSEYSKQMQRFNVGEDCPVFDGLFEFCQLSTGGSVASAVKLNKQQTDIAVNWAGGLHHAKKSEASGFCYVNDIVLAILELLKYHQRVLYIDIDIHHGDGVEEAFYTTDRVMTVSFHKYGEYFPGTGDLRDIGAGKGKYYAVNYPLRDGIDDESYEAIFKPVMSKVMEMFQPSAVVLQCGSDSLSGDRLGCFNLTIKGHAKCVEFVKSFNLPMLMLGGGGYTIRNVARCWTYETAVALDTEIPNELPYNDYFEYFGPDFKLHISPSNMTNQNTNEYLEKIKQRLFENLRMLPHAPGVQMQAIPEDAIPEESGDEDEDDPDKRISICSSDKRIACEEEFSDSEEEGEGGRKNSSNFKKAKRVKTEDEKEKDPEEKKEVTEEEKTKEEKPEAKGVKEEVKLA
structure (smiles),measurement,setting,value
O=C(NO)c1ccc(CN2c3ccccc3Sc3ccc(Cl)cc32)cc1,IC50,[1],2950 nM
same,IC50,[2],12 nM
O=C(NO)c1ccc(N2c3ccccc3Sc3ccccc32)cc1,IC50,[2],2670 nM
O=C(NO)c1ccc(CN2c3cccnc3Sc3cccnc32)cc1,IC50,[2],14 nM
COc1ccc2c(c1)N(Cc1ccc(C(=O)NO)cc1)c1ccccc1S2,IC50,[1],2070 nM
same,IC50,[2],10 nM
O=C(NO)c1ccc(CN2N=CC=C3Sc4ccccc4N=C32)cc1,IC50,[2],19 nM
O=C(NO)c1ccc(CN2c3ccccc3Sc3cc(Cl)nnc32)cc1,IC50,[2],18 nM
O=C(NO)c1ccc(CN2c3ccncc3Sc3ccncc32)cc1,IC50,[2],9 nM
O=C(NO)c1ccc(CN2c3ccccc3S(=O)(=O)c3ccccc32)cc1,IC50,[1],3990 nM
same,Drug uptake,[3],Active
O=C(NO)c1ccc(CN2c3ccccc3Sc3ccccc32)cc1,IC50,[1],5080 nM
same,Activity,[4],Non-Toxic
same,inhibition at 10 µM,[5],24.4%
same,inhibition,[6],< 20%
same,IC50,[7],1480 nM
same,Drug metabolism,[8],Metabolite_Detected
same,t1/2,[9],1.95 h
same,"remaining at 40 min, 2 µM",[10],77%
same,inhibition at 10 µM,[11],36.4%
same,inhibition at 10 µM,[12],45.4%
same,CLH,[13],14 µL/min/mg
same,inhibition at 10 µM,[14],20%
same,inhibition at 10 µM,[15],24.3%
same,Activity,[16],inactive
same,Drug metabolism,[17],Metabolite_Detected
CN1CCC2=C(C1)N(Cc1ccc(C(=O)NO)cc1)c1ccccc1S2,IC50,[1],980 nM
same,IC50,[2],32 nM
same,inhibition,[18],66%
O=C(NO)c1ccc(CCN2c3ccccc3Sc3ccccc32)cc1,IC50,[2],136 nM
O=C(NO)c1ccc(CN2c3ccccc3[S+]([O-])c3ccccc32)cc1,IC50,[1],6810 nM
same,IC50,[2],77 nM
same,Drug uptake,[3],Active
O=C(NO)c1ccc(CN2c3ccccc3Sc3nccnc32)cc1,IC50,[2],17 nM
CCSc1ccc2c(c1)N(Cc1ccc(C(=O)NO)cc1)c1ccccc1S2,IC50,[1],7200 nM
same,IC50,[2],31 nM
O=C(NO)c1ccc(CN2c3ccncc3Sc3ncccc32)cc1,IC50,[1],3340 nM
same,"viability at 24 h, 100 µM",[19],80%
same,inhibition,[20],Active
same,inhibition,[6],< 20%
same,IC50,[7],2000 nM
same,IC50,[2],12 nM
same,inhibition,[21],Active
same,Activity,[16],inactive
same,inhibition,[22],Active
O=C(NO)c1ccc(CN2N=C(Cl)C=C3Sc4ccccc4N=C32)cc1,IC50,[2],115 nM
Cn1c(=O)c2c(ncn2C)n(C)c1=O [CAFFEINE],t1/2,[9],6.22 h
same,CLH,[13],4 µL/min/mg
Cc1nc2c(s1)Sc1ccccc1N2Cc1ccc(C(=O)NO)cc1,IC50,[2],37 nM
O=C(NO)c1ccc(CN2c3ccccc3Sc3ccnnc32)cc1,IC50,[2],11 nM
O=C(CCCCCCC(=O)Nc1ccc([C@H]2O[C@@H](CSc3nc(-c4ccccc4)c(-c4ccccc4)o3)C[C@@H](c3ccc(CO)cc3)O2)cc1)NO [TUBACIN],IC50,[1],1010 nM
O=C(NO)c1ccc(CN2c3ccccc3Sc3ccncc32)cc1,IC50,[2],7 nM
O=C(CCCCCCC(=O)Nc1ccccc1)NO,Activity,[23],Active
same,Activity,[24],Active
same,Activity,[25],Active
same,Activity,[26],Active
same,Activity,[27],Active
O=C(NO)c1ccc(CN2c3ccccc3Sc3cccc(Cl)c32)cc1,IC50,[1],5760 nM
same,IC50,[2],16 nM
O=C(NO)c1ccc(CN2c3ccccc3Sc3ccc(C(F)(F)F)cc32)cc1,IC50,[1],7490 nM
same,IC50,[2],25 nM
